According to patent US20160000702A1, “PHARMACEUTICAL COMPOSITION FOR ENHANCED TRANSMUCOSAL ADMINSTRATION OF BENZODIAZEPINES” (EASTGATE PHARMACEUTICALS INC., priority 2013, published 2016):
Converted amounts (≈) assume the structure as drawn.

Experiments:
physchem = conditions: for solubility: oil or lipid
Protocol: After combining of pre-weighed amounts of components they were gently triturated at room temperature (20-22° C.) using a stainless steel spatula until liquid phase is formed.

PTZ induced seizures = experiment: Timed intravenous PTZ infusion test (ivPTZ); format: in vivo, mice; conditions: Lorazepam 2.5 mg/kg (Graph 5)
Source text: For investigation of anti-seizure activity of invented formulations, a timed intravenous PTZ infusion test was employed.
The technique of timed i.v. PTZ (pentylenetetrazole) infusion test (ivPTZ) is a simple, reproducible and fast method for assessment of onset, peak, duration and potency of various anticonvulsants and proconvulsants in animals. This test provides an extremely sensitive parametric method for assessing seizure threshold in individual animals and a quantifiable endpoint can be obtained with a minimal number of animals. Different seizure types can be chosen as endpoint in this test. Usually, the first seizure occurring during the PTZ infusion is a myoclonic twitch, followed by clonic and, later, tonic seizures. […]
During the infusion, mice are observed for the onset of different types of seizures. The time latencies from the start of infusion to the appearance of the first clonus (characterized by rapid involuntary rhythmic contraction and relaxation of limbs), lasting longer than 5 seconds, are recorded. […]
The infusion of PTZ will be terminated at 2 min, in case of non-appearance of clonic seizures. For such animals, the dose of PTZ in mg/kg infused during the course of 2 min is calculated as the threshold dose.
The threshold doses of PTZ producing clonic seizures are calculated (in mg/kg) using the following formula: […]

[1] = Water solubility of Lorazepam in saline; conditions: saline or isotonic
[2] = intranasal, human patients, anti-seizure activity; cited from earlier work

Compound | solubility (physchem; Lorazepam solubility in MCT with 5% Menthol, MCT oil + 5% Menthol by weight) [µg/mL] | solubility (physchem; Lorazepam solubility in MCT with 8% Menthol, MCT oil + 8% Menthol) [µg/mL] | solubility (physchem; Solubility in capric/caprylic triglycerides (MCT oil), pure MCT oil, RT) [µg/mL] | solubility (physchem; Solubility of Lorazepam in peppermint oil, peppermint oil containing about 45% of menthol) [µg/mL] | Increase of Lorazepam solubility, MCT with 5% Menthol (physchem; versus pure MCT oil) [%] | Increase of Lorazepam solubility, MCT with 8% Menthol (physchem; versus pure MCT oil) [%] | Time to maximal protection (PTZ induced seizures) | solubility [1] [µg/mL] | Onset of action [2]
O=C1Nc2ccc(Cl)cc2C(c2ccccc2Cl)=NC1O (stereo not drawn) [Lorazepam] | 5500 | 6800 | 4300 (≈ 13.4 mM) | 38900 (≈ 121 mM) | 28 | ~60 | approximately 5 minutes | ~27 (≈ 0.0841 mM) | 
Cc1ncc2n1-c1ccc(Cl)cc1C(c1ccccc1F)=NC2 [Midazolam] |  |  |  |  |  |  |  |  | approximately 10 minutes
